Experimental data reported in the supplement of paper PMC10307832.

Experiments:
Assay in all cases: relative viability (nuclei count vs DMSO), 5 days (fraction); higher = more cells survive
ChaGo-K-1 = tested on: ChaGo-K-1
Procedure, shortened: (§1)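 Lung cancer cell lines were pin-tool dosed in 1536-well plates on the day after seeding, with either a lone drug or a fixed anchor-drug dose plus five library-drug doses (not always all listed) in √10 steps. Nuclei were counted on 4× images after 5 days. Relative viability is the ratio of treated-well to vehicle-well nuclei counts, with each value a median of duplicate plates.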

EKVX = tested on: EKVX
Procedure, shortened: as §1

EMC-BAC-2 = tested on: EMC-BAC-2
Procedure, shortened: as §1

EPLC-272H = tested on: EPLC-272H
Procedure, shortened: as §1

HCC-78 = tested on: HCC-78
Procedure, shortened: as §1

HCC-827 = tested on: HCC-827
Procedure, shortened: as §1

LCLC-103H = tested on: LCLC-103H
Procedure, shortened: as §1

LK-2 = tested on: LK-2
Procedure, shortened: as §1

LU99A = tested on: LU99A
Procedure, shortened: as §1

NCI-H1666 = tested on: NCI-H1666
Procedure, shortened: as §1

NCI-H1975 = tested on: NCI-H1975
Procedure, shortened: as §1

NCI-H2126 = tested on: NCI-H2126
Procedure, shortened: as §1

NCI-H2342 = tested on: NCI-H2342
Procedure, shortened: as §1

NCI-H23 = tested on: NCI-H23
Procedure, shortened: as §1

NCI-H2405 = tested on: NCI-H2405
Procedure, shortened: as §1

NCI-H322M = tested on: NCI-H322M
Procedure, shortened: as §1

PC-14 = tested on: PC-14
Procedure, shortened: as §1

RERF-LC-KJ = tested on: RERF-LC-KJ
Procedure, shortened: as §1

SK-LU-1 = tested on: SK-LU-1
Procedure, shortened: as §1

SW 1573 = tested on: SW 1573
Procedure, shortened: as §1

SW 900 = tested on: SW 900
Procedure, shortened: as §1

SMILES: Nc1ccn([C@@H]2O[C@H](CO)[C@@H](O)[C@@H]2O)c(=O)n1 [Cytarabine] + CC(=O)c1c(C)c2cnc(Nc3ccc(N4CCNCC4)cn3)nc2n(C2CCCC2)c1=O [Palbociclib] (partner 0.5 µM)
- relative viability (ChaGo-K-1; first compound 0.005 µM): 0.71
- relative viability (ChaGo-K-1; first compound 0.01581 µM): 0.598
- relative viability (ChaGo-K-1; first compound 0.05 µM): 0.461
- relative viability (ChaGo-K-1; first compound 0.1581 µM): 0.276
- relative viability (ChaGo-K-1; first compound 0.5 µM): 0.229
- relative viability (EKVX; first compound 0.005 µM): 0.366
- relative viability (EKVX; first compound 0.01581 µM): 0.403
- relative viability (EKVX; first compound 0.05 µM): 0.296
- relative viability (EKVX; first compound 0.5 µM): 0.207
- relative viability (EMC-BAC-2; first compound 0.005 µM): 0.51
- relative viability (EMC-BAC-2; first compound 0.01581 µM): 0.501
- relative viability (EMC-BAC-2; first compound 0.05 µM): 0.463
- relative viability (EMC-BAC-2; first compound 0.1581 µM): 0.353
- relative viability (EMC-BAC-2; first compound 0.5 µM): 0.303
- relative viability (EPLC-272H; first compound 0.005 µM): 0.319
- relative viability (EPLC-272H; first compound 0.01581 µM): 0.29
- relative viability (EPLC-272H; first compound 0.05 µM): 0.281
- relative viability (EPLC-272H; first compound 0.1581 µM): 0.249
- relative viability (EPLC-272H; first compound 0.5 µM): 0.219
- relative viability (HCC-78; first compound 0.005 µM): 0.492
- relative viability (HCC-78; first compound 0.01581 µM): 0.42
- relative viability (HCC-78; first compound 0.05 µM): 0.393
- relative viability (HCC-78; first compound 0.1581 µM): 0.366
- relative viability (HCC-78; first compound 0.5 µM): 0.361
- relative viability (HCC-827; first compound 0.005 µM): 0.347
- relative viability (HCC-827; first compound 0.01581 µM): 0.317
- relative viability (HCC-827; first compound 0.05 µM): 0.19
- relative viability (HCC-827; first compound 0.1581 µM): 0.173
- relative viability (HCC-827; first compound 0.5 µM): 0.14
- relative viability (LCLC-103H; first compound 0.005 µM): 0.488
- relative viability (LCLC-103H; first compound 0.01581 µM): 0.429
- relative viability (LCLC-103H; first compound 0.05 µM): 0.498
- relative viability (LCLC-103H; first compound 0.1581 µM): 0.439
- relative viability (LCLC-103H; first compound 0.5 µM): 0.492
- relative viability (LK-2; first compound 0.005 µM): 0.634
- relative viability (LK-2; first compound 0.01581 µM): 0.267
- relative viability (LK-2; first compound 0.05 µM): 0.233
- relative viability (LK-2; first compound 0.1581 µM): 0.14
- relative viability (LK-2; first compound 0.5 µM): 0.107
- relative viability (LU99A; first compound 0.005 µM): 0.409
- relative viability (LU99A; first compound 0.01581 µM): 0.399
- relative viability (LU99A; first compound 0.05 µM): 0.391
- relative viability (LU99A; first compound 0.1581 µM): 0.388
- relative viability (LU99A; first compound 0.5 µM): 0.288
- relative viability (NCI-H1666; first compound 0.005 µM): 0.611
- relative viability (NCI-H1666; first compound 0.01581 µM): 0.573
- relative viability (NCI-H1666; first compound 0.05 µM): 0.627
- relative viability (NCI-H1666; first compound 0.1581 µM): 0.511
- relative viability (NCI-H1666; first compound 0.5 µM): 0.575
- relative viability (NCI-H1975; first compound 0.005 µM): 0.453
- relative viability (NCI-H1975; first compound 0.01581 µM): 0.574
- relative viability (NCI-H1975; first compound 0.05 µM): 0.46
- relative viability (NCI-H1975; first compound 0.1581 µM): 0.283
- relative viability (NCI-H1975; first compound 0.5 µM): 0.212
- relative viability (NCI-H2126; first compound 0.005 µM): 0.352
- relative viability (NCI-H2126; first compound 0.01581 µM): 0.312
- relative viability (NCI-H2126; first compound 0.05 µM): 0.298
- relative viability (NCI-H2126; first compound 0.1581 µM): 0.277
- relative viability (NCI-H2126; first compound 0.5 µM): 0.261
- relative viability (NCI-H2342; first compound 0.005 µM): 0.525
- relative viability (NCI-H2342; first compound 0.01581 µM): 0.557
- relative viability (NCI-H2342; first compound 0.05 µM): 0.502
- relative viability (NCI-H2342; first compound 0.1581 µM): 0.467
- relative viability (NCI-H2342; first compound 0.5 µM): 0.435
- relative viability (NCI-H23; first compound 0.005 µM): 0.617
- relative viability (NCI-H23; first compound 0.01581 µM): 0.367
- relative viability (NCI-H23; first compound 0.05 µM): 0.299
- relative viability (NCI-H23; first compound 0.1581 µM): 0.193
- relative viability (NCI-H23; first compound 0.5 µM): 0.169
- relative viability (NCI-H2405; first compound 0.005 µM): 0.518
- relative viability (NCI-H2405; first compound 0.01581 µM): 0.449
- relative viability (NCI-H2405; first compound 0.05 µM): 0.367
- relative viability (NCI-H2405; first compound 0.1581 µM): 0.275
- relative viability (NCI-H2405; first compound 0.5 µM): 0.234
- relative viability (NCI-H322M; first compound 0.005 µM): 0.414
- relative viability (NCI-H322M; first compound 0.01581 µM): 0.492
- relative viability (NCI-H322M; first compound 0.05 µM): 0.42
- relative viability (NCI-H322M; first compound 0.1581 µM): 0.385
- relative viability (NCI-H322M; first compound 0.5 µM): 0.383
- relative viability (PC-14; first compound 0.005 µM): 0.432
- relative viability (PC-14; first compound 0.01581 µM): 0.366
- relative viability (PC-14; first compound 0.05 µM): 0.365
- relative viability (PC-14; first compound 0.1581 µM): 0.0885
- relative viability (PC-14; first compound 0.5 µM): 0.0651
- relative viability (RERF-LC-KJ; first compound 0.005 µM): 0.858
- relative viability (RERF-LC-KJ; first compound 0.01581 µM): 0.882
- relative viability (RERF-LC-KJ; first compound 0.05 µM): 0.819
- relative viability (RERF-LC-KJ; first compound 0.1581 µM): 0.517
- relative viability (RERF-LC-KJ; first compound 0.5 µM): 0.41
- relative viability (SK-LU-1; first compound 0.005 µM): 0.371
- relative viability (SK-LU-1; first compound 0.01581 µM): 0.419
- relative viability (SK-LU-1; first compound 0.05 µM): 0.271
- relative viability (SK-LU-1; first compound 0.1581 µM): 0.307
- relative viability (SK-LU-1; first compound 0.5 µM): 0.284
- relative viability (SW 1573; first compound 0.005 µM): 0.334
- relative viability (SW 1573; first compound 0.01581 µM): 0.407
- relative viability (SW 1573; first compound 0.05 µM): 0.281
- relative viability (SW 1573; first compound 0.1581 µM): 0.147
- relative viability (SW 1573; first compound 0.5 µM): 0.117
- relative viability (SW 900; first compound 0.005 µM): 0.536
- relative viability (SW 900; first compound 0.01581 µM): 0.515
- relative viability (SW 900; first compound 0.05 µM): 0.451
- relative viability (SW 900; first compound 0.1581 µM): 0.362
- relative viability (SW 900; first compound 0.5 µM): 0.292
